Test results from ChEMBL document CHEMBL4251555, “Synthesis, antitumor evaluation and microarray study of some new pyrazolo[3,4-d][1,2,3]triazine derivatives” (Eur J Med Chem, 2017).

What was measured:
[1] = tested on: Huh-7; test: Cytotoxicity against human HuH7 cells after 48 hrs by resazurin assay; type: functional, cell-based; conditions: Huh-7, 48 h
[2] = tested on: PANC-1; test: Cytotoxicity against human PANC1 cells after 48 hrs by resazurin assay; type: functional, cell-based; conditions: PANC-1, 48 h
[3] = tested on: CCRF-CEM; test: Cytotoxicity against human CCRF-CEM cells after 48 hrs by resazurin assay; type: functional, cell-based
[4] = tested on: TERT-RPE1; test: Cytotoxicity against human RPE1 cells after 48 hrs by resazurin assay; type: cell-based; conditions: RPE-1, 48 h
[5] = Selectivity index, ratio of IC50 for human RPE1 cells to IC50 for human HuH7 cells; type: toxicity; conditions: RPE1 cells versus HuH7 cells, read-out: Ratio IC50
[6] = Selectivity index, ratio of IC50 for human RPE1 cells to IC50 for human PANC1 cells; type: toxicity; conditions: RPE1 cells versus PANC1 cells, read-out: Ratio IC50
[7] = Selectivity index, ratio of IC50 for human RPE1 cells to IC50 for human CCRF-CEM cells; type: toxicity; conditions: RPE1 cells versus CCRF-CEM cells, read-out: Ratio IC50
[8] = tested on: Huh-7; test: Induction of apoptosis in human HuH7 cells assessed as caspase-3/7 activation after 24 hrs by Caspase-Glo assay; type: functional, cell-based
[9] = tested on: PANC-1; test: Induction of apoptosis in human PANC1 cells assessed as caspase-3/7 activation after 24 hrs by Caspase-Glo assay; type: functional, cell-based
[10] = tested on: Huh-7; test: Upregulation of SLC26A3 gene expression in human HuH7 cells after 48 hrs by micro-array analysis relative to control; type: functional
[11] = tested on: Huh-7; test: Upregulation of UGT1A1 gene expression in human HuH7 cells after 48 hrs by micro-array analysis relative to control; type: functional
[12] = tested on: Huh-7; test: Upregulation of UGT2B15 gene expression in human HuH7 cells after 48 hrs by micro-array analysis relative to control; type: functional
[13] = tested on: Huh-7; test: Upregulation of UGT2B7 gene expression in human HuH7 cells after 48 hrs by micro-array analysis relative to control; type: functional
[14] = tested on: Huh-7; test: Upregulation of DNASE1 gene expression in human HuH7 cells after 48 hrs by micro-array analysis relative to control; type: functional
[15] = tested on: Huh-7; test: Upregulation of MUCDH1 gene expression in human HuH7 cells after 48 hrs by micro-array analysis relative to control; type: functional
[16] = tested on: Huh-7; test: Upregulation of UGT2B17 gene expression in human HuH7 cells after 48 hrs by micro-array analysis relative to control; type: functional
[17] = tested on: Huh-7; test: Downregulation of GIP3 gene expression in human HuH7 cells after 48 hrs by micro-array analysis relative to control; type: functional
[18] = tested on: Huh-7; test: Downregulation of TAGLN gene expression in human HuH7 cells after 48 hrs by micro-array analysis relative to control; type: functional
[19] = tested on: Huh-7; test: Downregulation of THBS1 gene expression in human HuH7 cells after 48 hrs by micro-array analysis relative to control; type: functional
[20] = tested on: Huh-7; test: Downregulation of IFI27 gene expression in human HuH7 cells after 48 hrs by micro-array analysis relative to control; type: functional
[21] = tested on: Huh-7; test: Downregulation of FSCN1 gene expression in human HuH7 cells after 48 hrs by micro-array analysis relative to control; type: functional
[22] = tested on: Huh-7; test: Downregulation of SOCS2 gene expression in human HuH7 cells after 48 hrs by micro-array analysis relative to control; type: functional

Row | Compound | IC50 [1] | IC50 [2] | IC50 [3] | IC50 [4] | selectivity ratio [5] | selectivity ratio [6] | selectivity ratio [7] | also measured
1 | CCN/C(SC)=C(/C#N)C(=O)Nc1ccc(OCC)cc1 | 16.4 µM | 41.6 µM | 9.89 µM | > 100 µM | > 6.1 | > 2.4 | > 10.1 | –
2 | CCNc1[nH]nc2nnn(-c3ccc(OCC)cc3)c(=O)c12 | 14.4 µM | 16.1 µM | 15.2 µM | > 100 µM | > 6.9 | > 6.2 | > 6.6 | –
3 | CCOc1ccc(NC(=O)/C(C#N)=C(\NC23CC4CC(CC(C4)C2)C3)SC)cc1 | 10 µM | 23.7 µM | 17.6 µM | > 100 µM | > 10 | > 4.2 | > 5.7 | –
4 | CCOc1ccc(NC(=O)c2c(N)n[nH]c2Nc2ccccc2)cc1 | 4.32 µM | 21 µM | 4.47 µM | 67.8 µM | 15.7 | 3.2 | 15.1 | –
5 | C=CCNc1[nH]nc(N)c1C(=O)Nc1ccc(OCC)cc1 | 22 µM | 30.8 µM | 6.56 µM | > 100 µM | > 4.5 | > 3.2 | > 15.2 | –
6 | CCOc1ccc(NC(=O)c2c(N)n[nH]c2NC)cc1 | 21.8 µM | 31 µM | 7.9 µM | > 100 µM | > 4.6 | > 3.2 | > 12.7 | –
7 | CCOc1ccc(-n2nnc3n[nH]c(Nc4ccccc4)c3c2=O)cc1 | 9.39 µM | 13.1 µM | 5.92 µM | > 100 µM | > 10.6 | > 7.6 | > 16.9 | –
8 | CCOc1ccc(-n2nnc3n[nH]c(NC45CC6CC(CC(C6)C4)C5)c3c2=O)cc1 | 23.2 µM | 4.41 µM | 15.6 µM | > 100 µM | > 4.3 | > 22.7 | > 6.4 | –
9 | CCOc1ccc(NC(=O)/C(C#N)=C(\NC)SC)cc1 | 5.78 µM | 26.4 µM | 9.94 µM | > 100 µM | > 17.3 | > 3.8 | > 10.1 | Activity [8]: Dose-dependent effect; Activity [9]: Dose-dependent effect
10 | CCOc1ccc(NC(=O)/C(C#N)=C(\Nc2ccccc2)SC)cc1 | 25.3 µM | 49.3 µM | 20.3 µM | > 100 µM | > 4 | > 2 | > 4.9 | –
11 | CCNc1[nH]nc(N)c1C(=O)Nc1ccc(OCC)cc1 | 27 µM | 14.8 µM | 14 µM | > 100 µM | > 3.7 | > 6.8 | > 7.2 | –
12 | COc1cccc2c1C(=O)c1c(O)c3c(c(O)c1C2=O)C[C@@](O)(C(=O)CO)C[C@@H]3O[C@H]1C[C@H](N)[C@H](O)[C@H](C)O1 [DOXORUBICIN] | 5.43 µM | – | – | 14 µM | – | – | – | –
13 | CCOc1ccc(NC(=O)c2c(N)n[nH]c2NC23CC4CC(CC(C4)C2)C3)cc1 | 10.6 µM | 13.2 µM | 15.2 µM | 81.2 µM | 7.6 | 6.2 | 5.3 | –
14 | CCOc1ccc(NC(=O)CC#N)cc1 | 21.5 µM | 43.9 µM | 14.1 µM | > 100 µM | > 4.6 | > 2.3 | > 7.1 | –
15 | CCOc1ccc(-n2nnc3n[nH]c(NC)c3c2=O)cc1 | 7.01 µM | 9.92 µM | 12.4 µM | > 100 µM | > 14.3 | > 10.1 | > 8.1 | Activity [8]: Dose-dependent effect; Activity [9]: Dose-dependent effect
16 | C=CCN/C(SC)=C(/C#N)C(=O)Nc1ccc(OCC)cc1 | 8.85 µM | 21.8 µM | 18.5 µM | > 100 µM | > 11.3 | > 4.6 | > 5.4 | Activity [8]: Dose-dependent effect; Activity [9]: Dose-dependent effect
17 | C=CCNc1[nH]nc2nnn(-c3ccc(OCC)cc3)c(=O)c12 | 4.94 µM | 13.3 µM | 4.73 µM | > 100 µM | > 20.3 | > 7.5 | > 21.2 | Activity [8]: Dose-dependent effect; Activity [9]: Dose-dependent effect; fold change (FC) [10]: >=3 - 6; fold change (FC) [11]: >=3 - 6; fold change (FC) [12]: >=3 - 6; fold change (FC) [13]: >=3 - 6; fold change (FC) [14]: >=3 - 6; fold change (FC) [15]: >=3 - 6; fold change (FC) [16]: >=3 - 6; fold change (FC) [17]: >4; fold change (FC) [18]: >4; fold change (FC) [19]: >4; fold change (FC) [20]: >4; fold change (FC) [21]: >4; fold change (FC) [22]: >4
